Converted amounts (≈) assume the structure as drawn. Like-named read-outs stand apart in the source and are kept apart here.
Legend:
Test in all cases: MIC by standard agar dilution test
Type in all cases: cell-based
[1] = test system: Bordetella bronchiseptica 16; conditions: Table 1; Bordetella bronchiseptica 16; agar dilution; read-out: Minimum Inhibitory Concentration
Text: (§1) The antibacterial activity of the antibiotic compounds of this invention is illustrated by the following in vitro and in vivo test data obtained with representative compounds. In Tables I and II, the minimum inhibitory concentration (MIC) for representative compounds against a wide range of gram-positive and gram-negative bacteria are presented. The MIC values were obtained by the standard agar dilution test.

[2] = test system: Proteus inconstans PV25; conditions: Providencia alcalifaciens, Table II, read-out: Minimum Inhibitory Concentration
Text: as §1

[3] = test system: Enterobacter cloacae EN453; conditions: Table II, read-out: Minimum Inhibitory Concentration
Text: as §1

[4] = test system: Escherichia coli N10; conditions: Table 1, read-out: Minimum Inhibitory Concentration
Text: as §1

[5] = test system: Pseudomonas aeruginosa Ps18; conditions: Pseudomonas aeruginosa, PS18, read-out: Minimum Inhibitory Concentration
Text: as §1

[6] = test system: Enterobacter aerogenes EB6; conditions: Klebsiella aerogenes
Text: as §1

[7] = test system: Pseudomonas aeruginosa Ps15; conditions: Table II, read-out: Minimum Inhibitory Concentration
Text: as §1

[8] = test system: Staphylococcus epidermidis EPI2; conditions: Table 1, read-out: Minimum Inhibitory Concentration
Text: as §1

[9] = test system: Klebsiella pneumoniae KAE; conditions: Table 1, read-out: Minimum Inhibitory Concentration
Text: as §1

[10] = test system: Salmonella typhimurium 1335; conditions: Salmonella enterica, Table 1, read-out: Minimum Inhibitory Concentration
Text: as §1

[11] = test system: Escherichia coli TEM; conditions: read-out: Minimum Inhibitory Concentration
Text: as §1

[12] = test system: Pseudomonas aeruginosa 4276; conditions: Table II, read-out: Minimum Inhibitory Concentration
Text: as §1

[13] = test system: Enterobacter cloacae EB24
Text: as §1

[14] = test system: Haemophilus influenzae R252; conditions: Haemophilus influenzae, R252, read-out: Minimum Inhibitory Concentration
Text: as §1

[15] = test system: Enterobacter aerogenes C32; conditions: Klebsiella aerogenes, Table 1, read-out: Minimum Inhibitory Concentration
Text: as §1

[16] = test system: Proteus rettgeri C24; conditions: Providencia rettgeri, Table 1, read-out: Minimum Inhibitory Concentration
Text: as §1

[17] = test system: Proteus rettgeri PR2; conditions: Providencia rettgeri, Table II, read-out: Minimum Inhibitory Concentration
Text: as §1

[18] = test system: Streptococcus group D 9960; conditions: D9960, Table 1, read-out: Minimum Inhibitory Concentration
Text: as §1

[19] = test system: Staphylococcus aureus X1.1; conditions: Table 1, read-out: Minimum Inhibitory Concentration
Text: as §1

[20] = test system: Streptococcus pyogenes C203; conditions: Table 1, read-out: Minimum Inhibitory Concentration
Text: as §1

[21] = test system: Serratia marcescens X99
Text: as §1

[22] = test system: Staphylococcus aureus V41; conditions: Table 1, read-out: Minimum Inhibitory Concentration
Text: as §1

[23] = test system: Pseudomonas aeruginosa Ps9; conditions: Table II, read-out: Minimum Inhibitory Concentration
Text: as §1

[24] = test system: Serratia marcescens SE2; conditions: Table II, read-out: Minimum Inhibitory Concentration
Text: as §1

[25] = test system: Enterobacter cloacae EB5; conditions: Table 1, read-out: Minimum Inhibitory Concentration
Text: as §1

[26] = test system: Pseudomonas aeruginosa SF-2; conditions: SF2, Table II, read-out: Minimum Inhibitory Concentration
Text: as §1

[27] = test system: Pseudomonas aeruginosa Ps25; conditions: Table II, read-out: Minimum Inhibitory Concentration
Text: as §1

[28] = test system: Salmonella heidelberg X514; conditions: Salmonella enterica, Table 1, read-out: Minimum Inhibitory Concentration
Text: as §1

[29] = test system: Enterobacter aerogenes X68; conditions: Klebsiella aerogenes, Table 1, read-out: Minimum Inhibitory Concentration
Text: as §1

[30] = test system: Streptococcus group D X66; conditions: DX66, Table 1, read-out: Minimum Inhibitory Concentration
Text: as §1

[31] = test system: Proteus morganii PR15; conditions: Morganella morganii, Table 1, read-out: Minimum Inhibitory Concentration
Text: as §1

[32] = test system: Enterobacter aerogenes EB17; conditions: Klebsiella aerogenes, Table 1, read-out: Minimum Inhibitory Concentration
Text: as §1

[33] = test system: Proteus rettgeri PR7; conditions: Providencia rettgeri, Table 1, read-out: Minimum Inhibitory Concentration
Text: as §1

[34] = test system: Escherichia coli EC14; conditions: Table 1, read-out: Minimum Inhibitory Concentration
Text: as §1

[35] = test system: Haemophilus influenzae HOLT; conditions: Table 1, read-out: Minimum Inhibitory Concentration
Text: as §1

[36] = test system: Shigella sonnei N9; conditions: Table 1, read-out: Minimum Inhibitory Concentration
Text: as §1

[37] = test system: Staphylococcus aureus S13E; conditions: read-out: Minimum Inhibitory Concentration
Text: as §1

[38] = test system: Serratia marcescens SE3
Text: as §1

[39] = test system: Streptococcus pneumoniae Park 1; conditions: PARK1, Table 1, read-out: Minimum Inhibitory Concentration
Text: as §1

[40] = test system: Klebsiella pneumoniae X26; conditions: Table 1, read-out: Minimum Inhibitory Concentration
Text: as §1

[41] = test system: Pseudomonas aeruginosa X239
Text: as §1

[42] = test system: Pseudomonas aeruginosa PI23; conditions: Table II, read-out: Minimum Inhibitory Concentration
Text: as §1

[43] = test system: Enterobacter cloacae 265A; conditions: Table 1, read-out: Minimum Inhibitory Concentration
Text: as §1

[44] = test system: Klebsiella pneumoniae KL2; conditions: Table II, read-out: Minimum Inhibitory Concentration
Text: as §1

[45] = test system: Proteus morganii PR1; conditions: Morganella morganii, Table II, read-out: Minimum Inhibitory Concentration
Text: as §1

[46] = test system: Proteus inconstans PR33; conditions: Providencia alcalifaciens, Table 1, read-out: Minimum Inhibitory Concentration
Text: as §1

[47] = test system: Pseudomonas aeruginosa X528
Text: as §1

[48] = test system: Citrobacter freundii CF17; conditions: Table 1, read-out: Minimum Inhibitory Concentration
Text: as §1

[49] = test system: Staphylococcus epidermidis EPI1; conditions: Table 1, read-out: Minimum Inhibitory Concentration
Text: as §1

[50] = test system: Staphylococcus aureus X400; conditions: Table 1, read-out: Minimum Inhibitory Concentration
Text: as §1

[51] = test system: Pseudomonas aeruginosa X48; conditions: Table II, read-out: Minimum Inhibitory Concentration
Text: as §1

[52] = X99, Table II, read-out: Minimum Inhibitory Concentration
[53] = SE3, Table II, read-out: Minimum Inhibitory Concentration
[54] = X239, Table II, read-out: Minimum Inhibitory Concentration

`CCN[C@H]1[C@H](O)[C@@H](O)[C@@H](O[C@H]2O[C@H]3C[C@@H](N)[C@@H](O[C@H]4[C@H](O)[C@@H](O)[C@H](N)C[C@@H]4N)O[C@@H]3[C@H](O)[C@@H]2NC)O[C@@H]1CO` [Test Compound 2, 4"-N-Ethylapramycin] was tested, and the MIC [1] was 32 µg/mL (≈ 56.4 µM), the MIC [2] was 4 µg/mL (≈ 7.05 µM) and the MIC [3] was 4 µg/mL (≈ 7.05 µM). The MIC [4] was 16 µg/mL (≈ 28.2 µM), the MIC [5] was 4 µg/mL (≈ 7.05 µM) and the MIC ([6]; EB6, read-out: Minimum Inhibitory Concentration) was 2 µg/mL (≈ 3.52 µM). For the same molecule, the MIC [7] was 16 µg/mL (≈ 28.2 µM), the MIC [8] was 32 µg/mL (≈ 56.4 µM) and the MIC [9] was 8 µg/mL (≈ 14.1 µM). The MIC [10] was 16 µg/mL (≈ 28.2 µM), the MIC [11] was 4 µg/mL (≈ 7.05 µM) and the MIC [12] was 8 µg/mL (≈ 14.1 µM). For the same molecule, the MIC ([13]; Table II, Enterobacter cloacae EB24, agar dilution, read-out: Minimum Inhibitory Concentration) was 4 µg/mL (≈ 7.05 µM), the MIC [14] was 1 µg/mL (≈ 1.76 µM) and the MIC [15] was 8 µg/mL (≈ 14.1 µM). The MIC [16] was 8 µg/mL (≈ 14.1 µM), the MIC [17] was 8 µg/mL (≈ 14.1 µM) and the MIC [18] was > 128 µg/mL. It also gave an MIC [19] of 8 µg/mL (≈ 14.1 µM), an MIC [20] of 32 µg/mL (≈ 56.4 µM) and an MIC ([21]; X99, Table 1, read-out: Minimum Inhibitory Concentration) of 8 µg/mL (≈ 14.1 µM). For the same molecule, the MIC [21, 52] was 2 µg/mL (≈ 3.52 µM), the MIC [22] was 16 µg/mL (≈ 28.2 µM) and the MIC [23] was 64 µg/mL (≈ 113 µM). It also gave an MIC [24] of 4 µg/mL (≈ 7.05 µM), an MIC [25] of 16 µg/mL (≈ 28.2 µM) and an MIC [26] of 16 µg/mL (≈ 28.2 µM). It also gave an MIC [27] of 16 µg/mL (≈ 28.2 µM), an MIC [28] of 16 µg/mL (≈ 28.2 µM) and an MIC [29] of 8 µg/mL (≈ 14.1 µM). The MIC [30] was > 128 µg/mL, the MIC [31] was 16 µg/mL (≈ 28.2 µM) and the MIC [32] was 4 µg/mL (≈ 7.05 µM). It also gave an MIC [33] of 8 µg/mL (≈ 14.1 µM), an MIC [34] of 8 µg/mL (≈ 14.1 µM) and an MIC [35] of 2 µg/mL (≈ 3.52 µM). The MIC [36] was 16 µg/mL (≈ 28.2 µM), the MIC [37] was 16 µg/mL (≈ 28.2 µM) and the MIC ([38]; SE3, Table 1, read-out: Minimum Inhibitory Concentration) was 16 µg/mL (≈ 28.2 µM). It also gave an MIC [38, 53] of 4 µg/mL (≈ 7.05 µM), an MIC [39] of 32 µg/mL (≈ 56.4 µM) and an MIC [40] of 8 µg/mL (≈ 14.1 µM). For the same molecule, the MIC ([41]; X239, Table 1, read-out: Minimum Inhibitory Concentration) was 16 µg/mL (≈ 28.2 µM), the MIC [41, 54] was 16 µg/mL (≈ 28.2 µM) and the MIC [42] was > 128 µg/mL. The MIC [43] was 8 µg/mL (≈ 14.1 µM), the MIC [44] was 4 µg/mL (≈ 7.05 µM) and the MIC [45] was 4 µg/mL (≈ 7.05 µM). For the same molecule, the MIC [46] was 4 µg/mL (≈ 7.05 µM), the MIC ([47]; Table 1, read-out: Minimum Inhibitory Concentration) was 32 µg/mL (≈ 56.4 µM) and the “Minimum Inhibitory Concentration” value ([47]; Table II) was 32 µg/mL. The MIC [48] was 16 µg/mL (≈ 28.2 µM), the MIC [49] was 8 µg/mL (≈ 14.1 µM) and the MIC [50] was 32 µg/mL (≈ 56.4 µM).

Work on `CN[C@@H]1[C@@H](O[C@H]2O[C@H](CO)[C@@H](NCc3ccccc3)[C@H](O)[C@H]2O)O[C@H]2C[C@@H](N)[C@@H](O[C@H]3[C@H](O)[C@@H](O)[C@H](N)C[C@@H]3N)O[C@@H]2[C@@H]1O` [Test Compound 3, 4"-N-Benzylapramycin] yielded an MIC [2] of 64 µg/mL (≈ 102 µM), an MIC [3] of 8 µg/mL (≈ 12.7 µM) and an MIC ([6]; Table II, Enterobacter aerogenes EB6, agar dilution, read-out: Minimum Inhibitory Concentration) of 8 µg/mL (≈ 12.7 µM). For the same molecule, the MIC [7] was 128 µg/mL (≈ 203 µM), the MIC [12] was > 128 µg/mL and the MIC ([13]; Enterobacter cloacae, EB24, read-out: Minimum Inhibitory Concentration) was 4 µg/mL (≈ 6.35 µM). For the same molecule, the MIC [17] was > 128 µg/mL, the MIC [21, 52] was 4 µg/mL (≈ 6.35 µM) and the MIC [23] was > 128 µg/mL. For the same molecule, the MIC [24] was 16 µg/mL (≈ 25.4 µM), the MIC [26] was 128 µg/mL (≈ 203 µM) and the MIC [27] was 64 µg/mL (≈ 102 µM). For the same molecule, the MIC [51] was > 128 µg/mL, the MIC [38, 53] was 8 µg/mL (≈ 12.7 µM) and the MIC [41, 54] was 128 µg/mL (≈ 203 µM). For the same molecule, the MIC [42] was > 128 µg/mL, the MIC [44] was 8 µg/mL (≈ 12.7 µM) and the MIC [45] was 32 µg/mL (≈ 50.8 µM). For the same molecule, the MIC ([47]; Table II, read-out: Minimum Inhibitory Concentration) was > 128 µg/mL.
